From patent US20160120889A1, “LIFESPAN EXTENDING AGENT” (priority 2011, published 2016)

Key:
[1] = test system: wild-type N2 strain of the nematode Caenorhabditis elegans; assay: Nematode survival rate and average lifespan, wild-type N2; type: in vivo
Protocol: The wild-type N2 strain of the nematode Caenorhabditis elegans was used.
(§1) Complete S liquid medium (Sulston, J. E. and Brenner, S. (1974) Genetics 77, 95-104) was used for the culturing of the nematode. D-psicose or D-allose was added to the medium in 0.25% (14 mM) and 0.5% (28 mM). The Escherichia coli (E. coli) OP50 strain was added in 30 mg (wet weight/mL) to feed the worms. To exclude the effects of the germ cells on lifespan, the cell division inhibitor 2′-deoxy-5-fluorouridine (40 μM) was added.
(§2) Young worms, 4 days of age, were used for the measurements of survival rate and average lifespan. The prepared liquid medium was dispensed onto ten plastic petri dishes having a diameter of 3.5 cm (2 mL each). Ten nematodes were transferred to each petri dish (a total of 100 individuals), and cultured at 20° C. The samples were inoculated into a new medium every day until day 3, and every 2 to 3 days thereafter. Observations were made at the time of the inoculation, and the number of survived individuals was recorded.
The wild-type N2 strain of the nematode Caenorhabditis elegans was cultured, and lifespan was measured in the same manner as in Example 1, except that the D-psicose was used in 0.5% (w/v). […] The average lifespan with 0.5% D-psicose was 27 days, longer than the 23-day lifespan of the D-psicose-free control.

[2] = test system: oxygen sensitive mutant mev-1 of the nematode Caenorhabditis elegans; assay: Nematode average lifespan, oxygen sensitive mutant mev-1; type: in vivo; conditions: mev-1, 0.25%, Example 3; control 12 days
Protocol: as §1, §2
The oxygen sensitive mutant mev-1 of the nematode Caenorhabditis elegans was cultured, and lifespan was measured in the same manner as in Example 1, except that the D-psicose was used in 0.25%. […] The average lifespan with 0.25% D-psicose was 16 days, longer than the 12-day lifespan of the D-psicose-free control.

[3] = test system: SOD gene (mitochondria Mn-SOD, cytosol Cu/Zn-SOD) in N2; assay: SOD mRNA gene expression in N2 (real time quantitative RT-PCR); type: in vivo, Caenorhabditis elegans; conditions: N2, 0.5% (w/v), day 6, FIG. 5
Protocol: (§3) The wild-type N2 and the oxygen sensitive mutant mev-1 of the nematode Caenorhabditis elegans were cultured in liquid medium (10 mL) containing 0.5% (w/v) D-psicose. The medium was dispensed onto plastic petri dishes having a diameter of 10 cm, and approximately 1,000 nematodes were placed in each petri dish. The nematodes were cultured in the same manner as in Example 1 except for these differences, and the samples were collected on day 6 from the start of the culturing. FIG. 5 represents the results of the comparison of SOD mRNA gene expression levels. For comparison, the RNA gene levels of mitochondria Mn-SOD and cytosol Cu/Zn-SOD were measured.

[4] = test system: SOD gene (Mn-SOD sod-3, Cu/Zn-SOD) in mev-1; assay: SOD mRNA gene expression in mev-1 (real time quantitative RT-PCR); type: in vivo, Caenorhabditis elegans
Protocol: as §3

SOD activity in N2 = assay: SOD activity in lysate of N2; type: in vivo, Caenorhabditis elegans; conditions: N2, 0.5% (w/v)
Protocol: as §3
(§4) The wild-type N2 and the oxygen sensitive mutant mev-1 of the nematode Caenorhabditis elegans were grown in the same manner as in Example 4. The samples were collected on day 7 from the start of the culturing, and the SOD activity in the lysate was measured.

SOD activity in mev-1 = assay: SOD activity in lysate of mev-1; type: in vivo, Caenorhabditis elegans; conditions: mev-1, 0.5% (w/v)
Protocol: as §3, §4

[5] = test system: catalase genes ctl-1, ctl-2 in N2; assay: Catalase mRNA gene expression in N2; type: in vivo, Caenorhabditis elegans; conditions: N2, 0.5% (w/v), day 6
Protocol: as §3
The wild-type N2 and the oxygen sensitive mutant mev-1 of the nematode Caenorhabditis elegans were cultured in the same manner as in Example 4. The samples were collected on day 6 from the start of the culturing, and the catalase mRNA gene expression levels were compared. For comparison, the RNA gene levels of cytosol ctl-1 and peroxisome CTL-2 were measured.

catalase activity in N2 = assay: Catalase activity in lysate of N2; type: in vivo, Caenorhabditis elegans; conditions: N2, 0.5% (w/v), day 7, FIG. 8
Protocol: as §3
The wild-type N2 of the nematode Caenorhabditis elegans was grown in the same manner as in Example 4. The samples were collected on day 7 from the start of the culturing, and the catalase activity in the lysate was measured.

Question: What does the source list for `O=C[C@H](O)[C@H](O)[C@H](O)[C@H](O)CO` [D-allose]?
Answer: average lifespan ([1]; N2, 0.5% (28 mM) in medium, 20° C., Example 1, control 12.5 days): 15.8 days; increase in average lifespan vs control ([1]; N2, 0.5% in medium, Example 1): 26%

Question: With `O=C(CO)[C@H](O)[C@H](O)[C@H](O)CO` [D-psicose] as the molecule, how does the average lifespan ([1]; N2, 0.25% (14 mM) in medium, 20° C., Example 1, control 15.8 days) read?
Answer: 18.9 days

Question: And the “increase in average lifespan vs control” value ([1]; N2, 0.25% in medium, Example 1)?
Answer: 20%

Question: And the lifespan extension ([1]; N2, 0.5% (w/v))?
Answer: 17%

Question: And the average lifespan ([1]; N2, 0.5% (w/v), Example 2, control 23 days)?
Answer: 27 days

Question: What about the average lifespan [2] of the same molecule?
Answer: 16 days

Question: And the “SOD mRNA gene expression level” value [3]?
Answer: increased expression

Question: And the “SOD mRNA gene expression level” value ([4]; mev-1, 0.5% (w/v), day 6, FIG. 5)?
Answer: increased expression

Question: What about the “increase in expression level of Mn-SOD (sod-3) gene” value ([4]; mev-1, real time quantitative RT-PCR, 0.5% (w/v), day 6) of the same molecule?
Answer: 1.7 fold

Question: And the “increase in SOD enzyme activity” value (SOD activity in N2; day 7)?
Answer: 1.5 fold

Question: And the “SOD activity in the lysate” value (SOD activity in N2; day 7, FIG. 6)?
Answer: increased SOD activity

Question: What about the “increase in SOD enzyme activity” value (SOD activity in mev-1; day 7) of the same molecule?
Answer: 1.3 fold

Question: And the “SOD activity in the lysate” value (SOD activity in mev-1; day 7, FIG. 6)?
Answer: increased SOD activity

Question: And the “increase in gene expression levels of cytoplasm-localized catalase and peroxisome catalases (ctl-1, ctl-2)” value [5]?
Answer: 1.5 fold

Question: And the “catalase activity in the lysate” value (catalase activity in N2)?
Answer: increased catalase activity
